Measurements published in PMC9506420, “Biological Evaluation of 3-Azaspiro[Bicyclo[3.1.0]Hexane-2,5′-Pyrimidines] as Potential Antitumor Agents” (International Journal of Molecular Sciences, 2022).
Values joined by “and” are separate entries in the source; they are usually repeats but may differ in a detail not shown here. Identical values can stand only once. Like-named read-outs stand apart in the source and are kept apart here.

Columns and labels:
CT26 cells [1] = assay: Cell cycle distribution by flow cytometry (propidium iodide), CT26; format: cell-based, mouse; conditions: for SubG1 (%) / G2/M (%) / S (%) / G0/G1 (%): CT26, 10 μg/mL, 24 h; for SubG1 (%): control 3.6 ± 0.6; for G2/M (%): control 12.3 ± 0.9; for S (%): control 40.1 ± 1.5; for G0/G1 (%): control 44.0 ± 1.7; for cytostatic effect (cell cycle), CT26: CT26 cell line
Description: (§1) One of the indicators of the influence of biologically active products on the cells is the changed distribution of cells during different stages of the cell cycle. In this work, recently synthesized compounds were tested using flow cytometry for their effect on the distribution of cells in the cell cycle (G0/G1, G2/M, and S). Figure 8, Figure 9 and Figure 10 and Table 3 show the typical data after processing the results from three replicates of each experiment.
(§2) The distribution of HeLa and CT26 cells in the G0/G1-, S-, and G2/M-phases of the cell cycle was obtained by quantification of DNA content in propidium-iodide-stained cells using flow cytometry. Briefly, cells were seeded in 24-well plates at a density of 5 × 10^4 cells per well. After 24 h incubation, cells were exposed to 10 μg/mL of compounds 4c–i (the structure is provided in Scheme 1) for 24 h. The effects of compounds 4d, 4e, 4g, 4h were additionally tested at concentrations of 2 and 5 μg/mL. After incubation with drugs, the cells were detached by exposure to trypsin-EDTA for 5 min at 37 °C and then collected by pipetting. This was followed by treatment with 0.2 mg/mL saponin (Fluka, Waltham, MA, USA), 0.25 mg/mL RNase (Sigma-Aldrich, St. Louis, MO, USA), and 0.05 mg/mL propidium iodide (Invitrogen, Carlsbad, CA, USA). After washing, the samples were analyzed by standard flow cytometer (BD FACSCanto II, Becton Dickinson, San Jose, CA, USA). Then, 10,000 events were acquired for the sample. Data processing was performed using BD FACSDiva 9.0 software.

[2] = test system: African green monkey kidney epithelial (Vero) cell line; assay: MTS antiproliferative (cytotoxicity) assay, Vero (reference); format: cell-based; conditions: Chlorocebus sabaeus, Vero
Description: (§3) The cytotoxicity of synthesized 3-azaspiro[bicyclo[3.1.0]hexane-2,5′-pyrimidines] 4 against human erythroleukemia (K562), cervical carcinoma (HeLa), and T lymphocyte (Jurkat), as well as mouse colon carcinoma (CT26) and African green monkey kidney epithelial (Vero) cell lines as reference, was evaluated in vitro by the standard MTS assay for 24 and 72 h.
(§4) All the cell lines (human cervical carcinoma (HeLa), erythroleukemia (K-562), and T lymphocyte (Jurkat) as well as mouse colon carcinoma (CT26) and African green monkey kidney epithelial (Vero)) were obtained from the cell repository “Vertebrate cell culture collection” (supported by the Ministry of Science and Higher Education of the Russian Federation, agreement №075-15-2021-683, Institute of Cytology, Russian Academy of Sciences, Saint Petersburg, Russia). HeLa, Jurkat, and Vero cells were cultured in DMEM (HyClone, South Logan, UT, USA) supplemented with 10% (v/v) fetal bovine serum (Hyclone, GE Healthcare Life Sciences, Logan, UT, USA), and gentamicin (Sigma-Aldrich, St. Louis, MO, USA) at 37 °C in a humidified atmosphere with 5% CO2. K-562 and CT26 cells were grown at RPMI medium (Hyclone, GE Healthcare Life Sciences, Logan, UT, USA), with the same supplements and conditions.
(§5) To evaluate the in vitro toxicity of compounds synthesized, cells were seeded into 96-well plates at a density of 5 × 10^3 cells per well. On the next day, tested compounds were added to the wells at concentrations ranging from […], followed by incubation for 1 and 3 days. Cell proliferation was determined by adding 20 μL of MTS reagent (BioVision, Milpitas, CA, USA) stock solution per well. Each plate was incubated for 2 h at 37 °C in a humidified, 5% CO2 atmosphere. The plates were then read at 495 nm using plate spectrophotometer (Multiskan GO, Thermo Fisher Scientific, Waltham, MA, USA). All samples were measured in triplicates.

[3] = test system: human cervical carcinoma (HeLa) cell line; assay: MTS antiproliferative (cytotoxicity) assay, HeLa; format: cell-based; conditions: HeLa; for SI (selectivity index), HeLa: Vero as reference cell line; for IC50: Homo sapiens
Description: as §3, §4, §5

CT26 cells [4] = assay: Annexin V-FITC/DAPI cell death analysis, CT26; format: cell-based, mouse; conditions: CT26, 10 μg/mL, 72 h; for Necrotic Cells, %: control 0.0 ± 0.0; for Late Apoptotic Cells, %: control 0.9 ± 0.4; for Early Apoptotic Cells, %: control 10.5 ± 0.7; for Live Cells, %: control 88.5 ± 1.1
Description: (§6) The results of cell death detection after the exposure of the HeLa and CT26 cell lines to spiro-fused cycloadducts 4c–i at a dose of 10 μg/mL for 72 h, using Annexin V-FITC/DAPI staining, are shown in Figure 6 and Figure 7, respectively.
(§7) Cells were seeded in 24-well plates, 5 × 10^4 cells per well. After 24 h incubation, cells were treated with compounds 4c–i for 72 h. Then, cells were washed, harvested by trypsinisation, stained with Annexin V-FITC ([…]) and DAPI (Thermo Fisher Scientific, Waltham, MA, USA), in accordance with the protocol of the manufacturer, and analyzed by flow cytometry. The proapoptotic effect of azaspiro[bicyclo[3.1.0]hexane-2,5′-pyrimidines] 4c–i was evaluated by an Annexin V-FITC/DAPI (AV/DAPI) dual-staining assay to examine the occurrence of phosphatidylserine externalization, which facilitated the detection of live cells (lower-left quadrant; AV−/DAPI−), early apoptotic cells (upper-left quadrant; AV+/DAPI−), late apoptotic cells (upper-right quadrant; AV+/DAPI+), and necrotic cells (lower-right quadrant; AV−/DAPI+).

HeLa cells [5] = assay: Cell cycle distribution by flow cytometry (propidium iodide), HeLa; format: cell-based, human; conditions: for SubG1 (%) / G2/M (%) / S (%) / G0/G1 (%): HeLa, 10 μg/mL, 24 h; for SubG1 (%): control 2.3 ± 0.4; for G2/M (%): control 12.2 ± 1.3; for S (%): control 12.5 ± 1.7; for G0/G1 (%): control 73.1 ± 2.6
Description: as §1, §2

[6] = test system: mouse colon carcinoma (CT26) cell line; assay: MTS antiproliferative (cytotoxicity) assay, CT26; format: cell-based; conditions: for SI (selectivity index), CT26: Vero as reference cell line; for IC50: Mus musculus
Description: as §3, §4, §5

HeLa cells [7] = assay: Annexin V-FITC/DAPI cell death analysis, HeLa; format: cell-based, human; conditions: 10 μg/mL, 72 h; for Necrotic Cells, %: control 0.5 ± 0.3; for Early Apoptotic Cells, %: control 4.5 ± 0.7; for Late Apoptotic Cells, %: control 5.9 ± 0.4; for Live Cells, %: control 89.0 ± 0.7
Description: as §6, §7

[8] = 24 h, read-out: IC50, Vero, 24 h
[9] = 72 h, read-out: IC50, Vero, 72 h
[10] = 24 h, read-out: IC50, HeLa, 24 h
[11] = 72 h, read-out: IC50, HeLa, 72 h
[12] = CT26, 24 h, read-out: IC50, CT26, 24 h
[13] = CT26, 72 h, read-out: IC50, CT26, 72 h

| Structure (SMILES) | SubG1 (%) (CT26 cells [1]) | G2/M (%) (CT26 cells [1]) | S (%) (CT26 cells [1]) | G0/G1 (%) (CT26 cells [1]) | cytostatic effect (cell cycle), CT26 (CT26 cells [1]) | IC50 [2, 8] [µM] | IC50 [2, 9] [µM] | SI (selectivity index), HeLa [3] | IC50 [3, 10] [µM] | IC50 [3, 11] [µM] | Necrotic Cells, % (CT26 cells [4]) [%] | Late Apoptotic Cells, % (CT26 cells [4]) [%] | Early Apoptotic Cells, % (CT26 cells [4]) [%] | Live Cells, % (CT26 cells [4]) | SubG1 (%) (HeLa cells [5]) | G2/M (%) (HeLa cells [5]) | S (%) (HeLa cells [5]) | G0/G1 (%) (HeLa cells [5]) | SI (selectivity index), CT26 [6] | IC50 [6, 12] [µM] | other results |
| --- | --- | --- | --- | --- | --- | --- | --- | --- | --- | --- | --- | --- | --- | --- | --- | --- | --- | --- | --- | --- | --- |
| CCCC[C@@H]1NC2(C(=O)NC(=O)NC2=O)[C@]2(c3ccccc3)[C@@H](c3ccccc3)[C@]12c1ccccc1 [Compound 4e] | 19.3 ± 5.1 | 14.1 ± 9.4 | 28.5 ± 1.8 | 38.1 ± 6.4 | best effect | 23 ± 2 | 10 ± 2 | 0.8 | 13 ± 2 | 13 ± 4 | 1.4 ± 0.1 | 61.6 ± 0.5 | 23.4 ± 0.8 | 13.5% and 13.5 ± 0.4 % | 34.4 ± 5.8 | 5.7 ± 0.9 | 16.7 ± 1.2 | 43.1 ± 1.4 | 1.7 | 10 ± 2 | cytostatic effect (cell cycle), HeLa (HeLa cells [5]; HeLa cell line): strongest cytostatic effect; IC50 [6, 13]: 6 ± 2 µM; Necrotic Cells, % (HeLa cells [7]): 5.6 ± 2.6 %; Early Apoptotic Cells, % (HeLa cells [7]): 18.1 ± 3.1 %; Late Apoptotic Cells, % (HeLa cells [7]): 61.3 ± 3.8 %; Live Cells, % (HeLa cells [7]): 15.0% and 15.0 ± 2.7 % |
| CCC[C@@H]1NC2(C(=O)NC(=O)NC2=O)[C@]2(c3ccccc3)[C@@H](c3ccccc3)[C@]12c1ccccc1 [Compound 4d] | 12.2 ± 1.1 | 17.9 ± 0.6 | 34.4 ± 2.3 | 35.6 ± 1.0 | best effect | 48 ± 4 | 16 ± 2 | 1.1 | 17 ± 2 | 15 ± 2 | 1.1 ± 0.3 | 56.4 ± 2.4 | 9.6 ± 0.5 | 32.8 ± 3.0 % | 18.1 ± 1.0 | 8.4 ± 1.5 | 15.5 ± 1.1 | 58.0 ± 4.4 | 1.3 | 17 ± 2 | IC50 [6, 13]: 13 ± 2 µM; Necrotic Cells, % (HeLa cells [7]): 3.6 ± 1.8 %; Early Apoptotic Cells, % (HeLa cells [7]): 11.6 ± 0.2 %; Late Apoptotic Cells, % (HeLa cells [7]): 38.1 ± 16.8 %; Live Cells, % (HeLa cells [7]): 46.8% and 46.8 ± 18.4 % |
